Data reported in patent US5041426A, “Immune system enhancing 3-β-d-ribofuranosylthiazolo[4,5-d]pyridimine nucleosides and nucleotides” (priority 1988, dated 1991).
Values joined by “and” are separate entries in the source; they are usually repeats but may differ in a detail not shown here. Equal entries are not always repeated. Where two headings read alike, the source gives them in different places.

How the values were obtained:
K562 tumor cells = assay: In vitro augmentation of human natural killer cell activity (PBMNC, 51Cr release); format: cell-based; conditions: Table 22
Procedure: The natural killer cell activity in human cells was also measured. In conducting these tests peripheral blood mononuculear cells (PBMNC) were isolated on Ficoll-Hypaque gradient, washed three times in Hanks and re-suspended in RPMI-1640 containing 10% human AB serum as described in Rosenberg, S. A.: Journal American Medical Association, 256:3117, 1986 and the above referred to reference to Djeu, et al. Peripheral blood mononuclear cells (PBMNC) from eleven different donors were treated with compound 7 as described in Djeu, et al. as well as Sharma, B., Odom, L. F.: Cancer Immunol. Immunother. 7.93, 1979, and Sharma, B., Odom, L. F.: Cancer Research 44:3258, 1984.
The PBMNC cells were incubated with compound 7 at 37° C. for 20 to 68 hours in a 5% CO2 humid atmosphere and after incubation the cytotoxicity was determined against K562 tumor cells.
^a Peripheral blood mononuclear cells were treated with 0.05 - 0.4 mM
concentration of compound 7 in RPM11640 containing 10% human AB serum for
20 to 68 hours. After the treatment, effector cells were tested against
K562 target cells in 4 hour ^51 Cr release assay as described in
Sharma et al. above. The data shown here represent the maximum response.
K562 target cells in 4 hour ^51 Cr release assay as previously
described above in Sharma et al. The data represent the maximum response.
Other Nucleosides and Nucleotides of the invention were tested for their activity in human natural killer cells […] as per example 33 above.

YAC-1 cells [1] = assay: In vitro potentiation of murine natural killer cell activity (mouse spleen cells, 51Cr release); format: cell-based
Procedure: After incubation the cytotoxicity of the treated and untreated cells was determined against YAC-1 cells.
^a Spleen cells from mice were treated with 0.05 mM concentration of
amino acids and 5 × 10^-5 M Mercaptoethanol. The effector cells
were then tested for their cytotoxic activity against YAC1 target cells i
4 hr ^51 Cr release assay.
^a Spleen cells from mice were incubated in the absence and presence
of various compounds. After incubation, cells were suspended in complete
medium and then their cytotoxic activity was determined against YAC1
target cells as described in the text

YAC-1 cells [2] = assay: as above; format: cell-based; conditions: Table 21; 0.5 mM
Influenza B Virus = assay: Antiviral activity against Influenza B virus infection in mice; format: in vivo, mouse
Procedure: Compound 7 was tested therapeutically against Influenza B Virus Infection in Mice. In addition to a saline control Ribavirin, a known antiviral, was utilized for test purposes.
hours previrus inoculation.
^c p < .001 twotailed ttest.

San Angelo Virus [3] = format: in vivo, mouse; conditions: 200 mg/kg/day; half-daily doses twice a day for 7 days; Time (21 days)
San Angelo Virus [4] = format: in vivo, mouse; conditions: saline at -24 h, of mice that died
Banzi Virus = format: in vivo, mouse; conditions: placebo at -24 h, of mice that died

O=c1[nH]c(=O)c2sc(=O)n([C@@H]3O[C@H](CO)[C@@H](O)[C@H]3O)c2[nH]1 [Compound 8, 3-β-D-Ribofuranosylthiazolo[4,5-d]pyrimidine-2,5,7(4H,6H)-trione] was tested, and the “% Natural Killer Cell Cytotoxicity” value (K562 tumor cells; 0.2 mM) was 5%.
For O=C(OC[C@H]1O[C@@H](n2c(=O)sc3c(=O)[nH]cnc32)[C@H](OC(=O)c2ccccc2)[C@@H]1OC(=O)c1ccccc1)c1ccccc1 [Compound 9, 3-(2,3,5-Tri-O-benzoyl-β-D-Ribofuranosyl)thiazolo[4,5-d] pyrimidine-2,7(6H)-dione], the “% Natural Killer Cell Cytotoxicity” value (YAC-1 cells [1]; Table 21, 0.05 mM) was 3% and 2% and 0.31%, the “% Natural Killer Cell Cytotoxicity” value (K562 tumor cells; 0.05 mM) was 6% and the “% Natural Killer Cell Cytotoxicity” value (K562 tumor cells; 0.2 mM) was 43%. The “% Natural Killer Cell Cytotoxicity” value (YAC-1 cells [2]) was 13% and 6.5%.
In the case of NC(=O)c1ncn([C@@H]2O[C@H](CO)[C@@H](O)[C@H]2O)n1 [Ribavirin], the “Mean Survival Time” value (Influenza B Virus; 100 mg/kg/day, half-daily doses twice a day for 7 days) is reported as 8.0 ± 0.0 days, the “efficacy against influenza B (in words)” value (Influenza B Virus; Table 12) is reported as “significant antiviral activity” and the “Mean Survival Time” value (San Angelo Virus [3]) is reported as 12.3 ± 2.9 days. The “Mean Survival Time” value (San Angelo Virus [4]; Ribavirin 25 mg/kg/day days 0-6) was 8.1 ± 0.7 days, the “Mean Survival Time” value (San Angelo Virus [4]; Ribavirin 50 mg/kg/day days 0-6) was 9.0 ± 1.2 days and the “Mean Survival Time” value (Banzi Virus; Ribavirin 100 mg/kg days 0-6) was 8.5 ± 1.0 days. For the same compound, the “Mean Survival Time” value (Banzi Virus; Ribavirin 200 mg/kg days 0-6) was 9.1 ± 0.8 days.
In the case of Nc1nc2c(sc(=O)n2[C@@H]2O[C@@H]3COP(=O)(O)O[C@H]3[C@H]2O)c(=O)[nH]1 [Compound 12], the “% Natural Killer Cell Cytotoxicity” value (K562 tumor cells; 0.2 mM) is reported as 43% and the “% Natural Killer Cell Cytotoxicity” value (K562 tumor cells; 0.4 mM, Monophosphate Ammonium Salt) is reported as 39% and 22%.
Nc1nc2c(sc(=S)n2[C@@H]2O[C@H](CO)[C@@H](O)[C@H]2O)c(=O)[nH]1 [Compound 16, 5-Amino-2-thioxo-3-β -D-ribofuranosylthiazolo[4,5-d]pyrimidin-7(6H)-one] was tested, and the “% Natural Killer Cell Cytotoxicity” value (YAC-1 cells [2]) was 38%.
In the case of Nc1nc2c(sc(=O)n2[C@@H]2O[C@H](CO)[C@@H](O)[C@H]2O)c(=S)[nH]1 [Compound 19, 5-Amino-7(6H)-thioxo-3-β-D-ribofuranoxylthiazolo[4,5-d]pyrimidin-2-one], the “% Natural Killer Cell Cytotoxicity” value (K562 tumor cells; 0.2 mM) is reported as 7%.
With Poly I:C [reference compound] the “% Natural Killer Cell Cytotoxicity” value (YAC-1 cells [1]; C57BL/6J spleen cells, treatment 0 h, compound 7 at 0.05 mM) was 18%, the “% Natural Killer Cell Cytotoxicity” value (YAC-1 cells [1]; C57BL/6J spleen cells, treatment 0 h, compound 7 at 0.05 mM, listed as Poly I:) was 22% and the “% Natural Killer Cell Cytotoxicity” value (YAC-1 cells [1]; C57BL/6J spleen cells, treatment 20 h, compound 7 at 0.05 mM) was 13%. The “% Natural Killer Cell Cytotoxicity” value (YAC-1 cells [1]; C57BL/6J spleen cells, treatment 20 h, compound 7 at 0.05 mM, listed as Poly I:) was 6%, the “% Natural Killer Cell Cytotoxicity” value (YAC-1 cells [1]; C57BL/6J spleen cells, treatment 44 h, compound 7 at 0.05 mM) was 14% and the “% Natural Killer Cell Cytotoxicity” value (YAC-1 cells [1]; C57BL/6J spleen cells, treatment 44 h, compound 7 at 0.05 mM, listed as Poly I:) was 13%. The “% Natural Killer Cell Cytotoxicity” value (YAC-1 cells [1]; CBA/CaJ spleen cells, treatment 0 h, compound 7 at 0.05 mM) was 14.5% and 22%, the “% Natural Killer Cell Cytotoxicity” value (YAC-1 cells [1]; CBA/CaJ spleen cells, treatment 20 h, compound 7 at 0.05 mM) was 18% and 31% and the “% Natural Killer Cell Cytotoxicity” value (YAC-1 cells [1]; CBA/CaJ spleen cells, treatment 44 h, compound 7 at 0.05 mM) was 19% and 9%.
